Test results reported in publication PMC12379584, “Characterization of the ligand binding pocket of the virulence regulator Rns, a member of the AraC/XylS family of transcription factors” (mSphere, 2025).

Assays:
MBP-Rns [1] = target: MBP-Rns (Escherichia coli, UniProt P16114, R75A); assay: biochemical
MBP-Rns [2] = target: T1, MBP-Rns (Escherichia coli, UniProt P16114); assay: EMSA, inhibition of DNA binding; assay type: biochemical
T1 construct: full-length codon-optimized Rns with N-terminal MBP solubility tag kept (pMBPRnsOPT2, pMalC2), expressed in E. coli BL21, MBPTrap and heparin columns

MBP-Rns [3] = target: MBP-Rns (Escherichia coli, UniProt P16114, I14F/I17F); assay: biochemical
MBP-Rns [4] = target: MBP-Rns (Escherichia coli, UniProt P16114, H20A); assay: biochemical

CCCCCCCCCC(=O)O [decanoic acid]
IC50 (MBP-Rns [1]): > 10 mM | IC50 (MBP-Rns [2]): 1.15 mM | IC50 (MBP-Rns [3]): > 10 mM | IC50 (MBP-Rns [4]): > 10 mM
